These results are taken from publication PMC8579695, “The Stringent Response Inhibits 70S Ribosome Formation in Staphylococcus aureus by Impeding GTPase-Ribosome Interactions” (mBio, 2021).

Each structure is given as a SMILES string. Read-outs that look alike come from different tables or passages of the source.

For one experiment, the target named is Era (Staphylococcus aureus, UniProt Q2FGF6). Kind of experiment: DRaCALA binding of 32P-labeled nucleotides to 6×His-tagged Era. Conditions: for Bmax, Era: Bmax values indicate the fraction bound. On the procedure:
(§1) The RA-GTPases RsgA, Era, RbgA, and HflX can bind to the guanosine nucleotides GTP, GDP, ppGpp, and pppGpp. Our previous work observed higher binding affinities for ppGpp over GTP, pointing toward a difference in binding between 5′ di- or triphosphate nucleotides ([27]). […] Furthermore, these previous experiments were performed using recombinant proteins fused to large MBP tags, which could impact binding affinity determination. To examine the nucleotide binding affinities of these RA-GTPases for GDP in comparison to ppGpp, pppGpp, and GTP, and in the absence of a large tag, we used a differential radial capillary action of ligand assay (DRaCALA) with recombinant RsgA, RbgA, Era, and HflX fused to a smaller 6× His tag (Fig. 1B; see also Fig. S2A to C in the supplemental material) ([36]). In each case, the affinities of 5′ diphosphate-containing GDP and ppGpp were similar in the low μM range and were 2- to 6-fold higher than the affinities of either GTP or pppGpp (Table 1).
(§2) Supplementary file : FIG S2 Examination of the binding of GDP, ppGpp, GTP, and pppGpp to RA-GTPases by DRaCALA. (A to C) Determination of binding affinities and Kd values for ^32P-labeled nucleotides to purified recombinant 6×His-tagged RsgA (A), Era (B), and HflX (C). Kd values were determined from the binding curves as previously described ([36]). (D to F) DRaCALA binding assay of recombinant RsgA (D), Era (E), and HflX (F) binding to ^32P-labeled GTP, ppGpp, and pppGpp in the presence or absence of 100 μM cold competitors (GTP, GDP, ppGpp, pppGpp, and ATP). All experiments were carried out in triplicate, with error bars representing standard deviations. Download FIG S2, TIF file, 0.9 MB.
(§3) The synthesis of (p)ppGpp and differential radial capillary action of ligand assay (DRaCALA) binding and competition assays were performed as described previously ([27]), using recombinant, 6×His-tagged protein at the concentrations specified in the figure legends.

The next experiment deals with RbgA (Staphylococcus aureus, UniProt A0A0H2XK72). Put plainly: DRaCALA binding of 32P-labeled nucleotides to 6×His-tagged RbgA. Conditions: for Bmax, RbgA: Bmax values indicate the fraction bound.
Sequence of RbgA (A0A0H2XK72 entry or part of it): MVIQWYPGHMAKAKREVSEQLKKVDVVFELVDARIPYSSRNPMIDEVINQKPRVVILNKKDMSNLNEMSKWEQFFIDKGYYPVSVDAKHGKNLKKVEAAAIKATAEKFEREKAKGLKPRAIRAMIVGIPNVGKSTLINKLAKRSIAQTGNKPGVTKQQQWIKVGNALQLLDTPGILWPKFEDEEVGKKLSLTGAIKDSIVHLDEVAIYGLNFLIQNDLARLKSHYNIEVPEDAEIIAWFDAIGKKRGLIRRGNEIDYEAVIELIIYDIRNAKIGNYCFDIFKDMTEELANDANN
From the text: FIG 1 Nucleotide binding characteristics of RA-GTPases. (A) Schematic representation of the domain structure of Era, RsgA, RbgA, and HflX from S. aureus. The conserved GTPase domain (G domain) is colored in green, and accessory domains are shown. (B) Determination of binding affinities and Kd values for ^32P-labeled GTP, GDP, ppGpp, and pppGpp with purified recombinant 6×His-tagged RbgA using DRaCALA, as previously described ([36]). Each point is the mean average of at least three technical replicates, and error bars indicate standard deviations. (C) Binding assay (DRaCALA) of recombinant RbgA binding to ^32P-labeled GTP, ppGpp, and pppGpp in the presence of an excess of cold competitor (GTP, GDP, ppGpp, pppGpp, or ATP). All experiments were carried out in triplicate, with error bars representing standard deviations.
as §1, §3

For a further experiment, the target named is HflX (Staphylococcus aureus, UniProt Q2FYY9). Put plainly: DRaCALA binding of 32P-labeled nucleotides to 6×His-tagged HflX. Conditions: mean ± SEM; for Bmax, HflX: Bmax values indicate the fraction bound. On the procedure: as §1, §2, §3
Sequence of HflX (Q2FYY9 entry or part of it): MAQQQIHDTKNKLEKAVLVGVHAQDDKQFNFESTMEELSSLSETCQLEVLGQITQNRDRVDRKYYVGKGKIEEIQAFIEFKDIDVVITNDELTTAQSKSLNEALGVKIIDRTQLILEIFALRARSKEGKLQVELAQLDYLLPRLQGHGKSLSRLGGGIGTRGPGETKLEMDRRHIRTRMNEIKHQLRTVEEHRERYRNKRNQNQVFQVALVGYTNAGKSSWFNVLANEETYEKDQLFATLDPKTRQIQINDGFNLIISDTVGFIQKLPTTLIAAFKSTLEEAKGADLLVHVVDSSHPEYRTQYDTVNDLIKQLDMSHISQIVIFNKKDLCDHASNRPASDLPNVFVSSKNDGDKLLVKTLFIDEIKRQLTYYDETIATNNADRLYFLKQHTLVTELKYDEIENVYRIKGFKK

Sequence of Era (Q2FGF6 whole entry, the tested form may be a part): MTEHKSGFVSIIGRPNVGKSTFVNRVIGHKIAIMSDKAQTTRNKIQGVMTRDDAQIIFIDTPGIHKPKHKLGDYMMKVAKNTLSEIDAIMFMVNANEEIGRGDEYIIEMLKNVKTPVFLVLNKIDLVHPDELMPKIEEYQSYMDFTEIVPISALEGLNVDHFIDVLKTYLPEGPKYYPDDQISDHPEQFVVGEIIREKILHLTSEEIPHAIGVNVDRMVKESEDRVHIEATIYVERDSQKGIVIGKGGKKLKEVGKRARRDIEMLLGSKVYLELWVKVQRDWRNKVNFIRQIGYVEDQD

As usually defined, the Kd is a measure of binding affinity in units of concentration. Turning to `Nc1nc2c(ncn2[C@@H]2O[C@H](COP(=O)(O)OP(=O)(O)O)[C@@H](OP(=O)(O)OP(=O)(O)O)[C@H]2O)c(=O)[nH]1` [ppGpp], the Kd on Era (mean ± SEM, 32P-labeled nucleotide, 6×His-tagged protein, read-out: Kd, Era) turned out to be 4.2 ± 0.6 µM; at RbgA (mean ± SEM, 32P-labeled nucleotide, 6×His-tagged protein, read-out: Kd, RbgA), 2.9 ± 0.4 µM; at HflX (32P-labeled nucleotide, 6×His-tagged protein, read-out: Kd, HflX) it was 3.4 ± 0.4 µM. Besides, the “Bmax, Era” value on Era (mean ± SEM) worked out at 0.4 ± 0.0. At RbgA (mean ± SEM), the “Bmax, RbgA” value was 0.6 ± 0.0. Besides, the “Bmax, HflX” value on HflX is reported as 0.6 ± 0.0.
With `Nc1nc2c(ncn2[C@@H]2O[C@H](COP(=O)(O)OP(=O)(O)OP(=O)(O)O)[C@@H](OP(=O)(O)OP(=O)(O)O)[C@H]2O)c(=O)[nH]1` [pppGpp], the Kd on Era is 13.9 ± 4.7 µM; on RbgA it was 13.8 ± 4 µM. Moreover, the “Bmax, Era” value on Era (mean ± SEM) came to 0.2 ± 0.0. On RbgA (mean ± SEM), the “Bmax, RbgA” value was determined as 0.4 ± 0.0. For the same molecule, the “Bmax, HflX” value on HflX amounted to 0.5 ± 0.2.
